From EP0003461A1, “Aminoalcohol derivatives of ortho-hydroxy-methyl cinnamate, process for their preparation and medicines containing them” (LIPHA, LYONNAISE INDUSTRIELLE PHARMACEUTIQUE, priority 1978, dated 1979)

Key:
récepteurs bêta-1 = test: Inhibition of isoprenaline-induced tachycardia in the anaesthetised, bivagotomised dog; assay type: in vivo, chien; settings: dog anaesthetised with pentobarbital, isoprénaline 0,4 µg/kg/I.V., beta-1 blockade
Protocol: […]'action sur […] tension artérielle et du rythme cardiaque du […]é au pentobarbital et bivagotomisé recevant des injections […] (0,4 μg/kg/I.V.). L'hypotension provoquée par l'isoprénaline est due à une stimulation des récepteurs bêta-2 qui […] une vasodilatation. La […] produite par l'isopré- naline est due à une stimulation des récepteursbêta-1 cardiaques oui […] une accélération de son rythme de contraction. Dans l'inhibition […] visualisant un effet de blocage des récepteurs bêta-1, on a déterminé la dose efficace 50 en mg/kg/I.V.

récepteurs bêta-2 = test: Inhibition of isoprenaline-induced hypotension in the anaesthetised, bivagotomised dog; assay type: in vivo, chien; settings: dog anaesthetised with pentobarbital, isoprénaline 0,4 µg/kg/I.V., beta-2 blockade
Source text: L'hypotension provoquée par l'isoprénaline est due à une stimulation des récepteurs bêta-2 qui entraîne une vasodilatation. La tachycardie produite par l'isopré- naline est due à une stimulation des récepteursbêta-1 cardiaques oui entraîne une accélération de son rythme de contraction.

[1] = Clinical trial observations in patients given 200 mg tablets; assay type: in vivo
Protocol: Parmi les observations recueillies en essai clinique, avec administration de comprimés titrés à 200 mg de principe actif, le chlorhydrate de l'ortho [(diméthoxy-3,4 phénéthylamino) -3 hydroxy-2 propoxy] trans cinnamate de méthyle, on peut rapporter les trois suivantes : • Observation N°1: • Monsieur NOV...., 64 ans présente un état de mal angineux chroniaue avec huit crises par 24 heures. Le traitement consiste en un repos et la prise d'un comprimé à 200 mg du composé exemple 1 24 heures pendant 10 jours. Le résultat est un effet bradycardisant net; le pouls passe de 95 à 60 et une très nette diminution des crises dès le deuxième jour (2 à 3 par 24 heures) est notée. La tolérance est très bonne. • Obseryation N°2: • Monsieur CLI...., 75 ans présente un bloc auriculo- ventriculaire complet appareillé par pace-maker cardis à un rythme fixe (68/mn) avec parpsystolie. A l'suscultation on note un souffle systolique en écharpe. L'électrocardiogramme montre une paracystolie avec complexes spontanés à F.R. long et aspect de bloc gauche et co-plexe électro- entrainés. La radiographie montre une hypertrophie ventriculaire gauche modérée. Le traitement consiste en la prise journalière pendant 10 jours du composé exemple 1 à 200 mg.
Monsieur HEL ...., 44 ans a une hypertension artérielle depuis 3 ans; les chiffres habituels récents sont 180/110 mn Mg. L'étiologie est inconnue et il n'y a pas de complications. On associe au traitement consistant en la prise le matin d' 1 comprimé à 200 mg, pendant 15 jours, un régime hyposodé.

**Q.** With `CC(=O)Nc1ccc(OCC(O)CNC(C)C)cc1` (stereo not drawn) [Fractolol, 4' - [2-hydroxy-3 - (iso-propylamino)propoxy] acétanilide] as the molecule, how does the “dose efficace 50 (DE 50), inhibition de la tachycardie à l'isoprénaline” value (récepteurs bêta-1) read?
**A.** 0,61 mg/kg/I.V.

**Q.** For `COC(=O)/C=C/c1ccccc1OCC(O)CNC(C)C` (stereo not drawn) [LM 748, chlorhydrate de l'ortho (isopropylamino 3 - hydroxy-2 propoxy) trans cinnamate de méthyle], which “dose efficace 50 (DE 50), inhibition de l'hypotension à l'isoprénaline” value (récepteurs bêta-2) is on record?
**A.** 0,01 mg/kg/I.V.

**Q.** With `COC(=O)/C=C/c1ccccc1OCC(O)CNCCc1ccc(OC)c(OC)c1` (racemic) [Composé exemple 1, trans ortho [(3-4 diméthoxyphénéthyl)amino-3 hydroxy-2 propoxy] cinnamatede méthyle] as the molecule, how does the tolérance ([1]; Observation N°1: 200 mg per 24 h for 10 days) read?
**A.** très bonne

**Q.** What about the “crises par 24 heures” value ([1]; Observation N°1: angina attacks from the second day, one 200 mg tablet per 24 h, before treatment eight per 24 h) of the same molecule?
**A.** 2 à 3 par 24 heures

**Q.** And the pouls ([1]; Observation N°1: patient, chronic angina, one 200 mg tablet per 24 h for 10 days, before treatment 95)?
**A.** 60

**Q.** What about the tolérance ([1]; Observation N°2: 200 mg daily for 10 days) of the same molecule?
**A.** très bonne

**Q.** What about the résultat ([1]; Observation N°2: patient, complete AV block with pacemaker and parasystole, 200 mg daily for 10 days) of the same molecule?
**A.** disparition de la para- systolie

**Q.** What about the “Pouls, Après” value ([1]; Observation N°3: after treatment, 200 mg per day for 15 days, before 70) of the same molecule?
**A.** 60

**Q.** What about the “Tension artérielle debout, Après” value ([1]; Observation N°3: after treatment, 200 mg per day for 15 days, before 160/100) of the same molecule?
**A.** 140/88

**Q.** What about the “Tension artérielle couché, Après” value ([1]; Observation N°3: after treatment, 200 mg per day for 15 days, before 165/102) of the same molecule?
**A.** 140/90

**Q.** And the tolérance ([1]; Observation N°3: general and local tolerance, 200 mg per day for 15 days)?
**A.** bonne

**Q.** What about the résultat ([1]; Observation N°3: patient, arterial hypertension, one 200 mg tablet in the morning for 15 days, with low-sodium diet) of the same molecule?
**A.** très bon
